Results published in article PMC6151435, “Bioactivity In Vitro of Quercetin Glycoside Obtained in Beauveria bassiana Culture and Its Interaction with Liposome Membranes” (Molecules : A Journal of Synthetic Chemistry and Natural …, 2017).
Read-outs that look alike come from different tables or passages of the source.

Experiments:
COX-2 = target: T1, COX-2 (Homo sapiens, UniProt P35354); assay: Inhibition of cyclooxygenase 2 (spectrophotometric, TMPD); type: biochemical
T1 construct: purchased Sigma-Aldrich
T1 sequence (P35354 18-604): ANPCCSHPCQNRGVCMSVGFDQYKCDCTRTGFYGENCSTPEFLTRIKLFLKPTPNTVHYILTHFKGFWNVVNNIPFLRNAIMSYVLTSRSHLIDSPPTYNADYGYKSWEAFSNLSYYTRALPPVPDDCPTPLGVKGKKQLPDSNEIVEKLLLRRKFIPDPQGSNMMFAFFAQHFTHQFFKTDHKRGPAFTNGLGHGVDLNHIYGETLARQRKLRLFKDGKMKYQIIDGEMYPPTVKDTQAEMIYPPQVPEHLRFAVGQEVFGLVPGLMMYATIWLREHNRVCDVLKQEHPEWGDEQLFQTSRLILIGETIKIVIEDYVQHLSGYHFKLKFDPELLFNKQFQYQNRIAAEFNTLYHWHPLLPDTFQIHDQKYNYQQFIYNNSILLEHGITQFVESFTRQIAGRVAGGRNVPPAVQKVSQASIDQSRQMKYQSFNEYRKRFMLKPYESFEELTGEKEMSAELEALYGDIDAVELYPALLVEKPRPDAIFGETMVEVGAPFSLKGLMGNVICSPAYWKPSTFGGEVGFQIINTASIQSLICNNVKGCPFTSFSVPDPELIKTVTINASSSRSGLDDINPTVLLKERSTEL
Text: The probes 1,6-diphenyl-1,3,5-hexatriene (DPH), 3-[p-(6-phenyl)-1,3,5-hexatrienyl]propionic acid (DPH-PA), Merocyanine 540 (MC540), and N,N,N-trimethyl-4-(6-phenyl-1,3,5-hexatrien-1-yl)phenylammonium p-toluenesulfonate (TMA-DPH) were purchased from Molecular Probes (Eugene, OR, USA). Tris (hydroxymethyl) aminomethane (Tris:HCl) were obtained from “Chempur” (Piekary Śląskie, Poland). Quercetin (Q) was purchased from Sigma-Aldrich.
This experiment, established on the basis of a modified method given in the work by Jang and Pezzuto [68], was conducted by a spectrophotometric measurement of inhibition of the cyclooxygenases’ activity COX-1 and COX-2. […] To initiate the reaction, arachidonic acid was added at a concentration of 35 mM. The final volume of the sample was 1 mL. […] The measurements were carried out at room temperature. The control sample contained the right amount of solvent (methanol) instead of the studied compounds. […] The experiment was performed in five replicates (n = 5).

[1] = 1H-NMR study of interaction with DPPC liposomes (PrCl3 shift reagent); settings: 0.24 mM compound
Method: The ^1H-NMR method of investigating the Q 7-MeGlu and Q interaction with liposomes was described earlier by Gabrielska et al. with minor modifications. Mixtures of phospholipids (DPPC) with studied compounds were co-dissolved in a chloroform/methanol mixture (55:1 v/v) at the respective concentrations. The lipid concentration in the sample was 36 mM and that of Q 7-MeGlu and Q was 0.24 mM […]. The samples were first evaporated under a stream of nitrogen and then in a vacuum (overnight). Then the samples were hydrated with D2O and vigorously shaken (15 min) at temperature above the main phase transition of lipid (41 °C) until optical homogeneity of the mixture was reached. Next, the lipid suspension was sonicated with a 20 kHz sonicator (20 kHz, Sonic, Italy) to yield a homogeneous lipid dispersion. Briefly, before the measurements a 4 mM praseodymium trichloride (PrCl3 × 6H2O) in heavy water solution […] was added to the sample of 0.6 mL liposome suspension. ^1H-NMR parameters were as follows: spectral window 12.019 Hz, digital resolution 0.183 Hz, acquisition and delay times 2.73 s and 1.00 s, respectively, and acquisition temperature 325 K. The experiment was performed in two replicates.

[2] = Fluorescence measurements with MC540, TMA-DPH and DPH probes in liposome membranes; settings: concentration 1–10 μM
Method: Small unilamellar liposomes (SUV) consisted of phosphatidylcholine (egg-PC) were prepared in accordance with the methodology described by Gabrielska and Oszmiański. The lipids were dissolved in chloroform (100 mg/mL), evaporated to dryness under nitrogen and under vacuum for another 60 min. Subsequently, a phosphate buffer […] of pH 7.4 was added and liposomes were formed by mechanical shaking. Then SUVs were formed using a 20 kHz sonicator for 15 min. During sonication the samples were thermostated at 0–2 °C. In the study, PC liposomes at a concentration of 0.1 mg/mL in phosphate buffer (pH 7.4) were used. Liposomes prepared according to the presented-above procedure were used to determine the antioxidative activity and in fluorometric studies.
The Q 7-MeGlu and Q effect on the hydrophilic and hydrophobic properties of the membrane was determined using the fluorometric method applying the MC540, TMA-DPH and DPH fluorescence probes according to the procedure described by Strugała et al.. Merocyanine 540 (MC540) is a probe that partitions into the membrane and orients parallel to the glycerol backbones of the lipids. The fluorescence intensity of MC540 emission was determined and expressed as relative intensity change in relation to control as a function of studied compounds concentration. The TMA-DPH and DPH probes are supposed to distribute in the hydrophobic part of the bilayer. All the fluorescent probes were used at 1 μM concentration. The DPH and TMA-DPH stock solutions were prepared in DMF, while the probe MC540 was dissolved in methanol. Liposomes were prepared according to procedure described in Section 3.6.1. […] Fluorescence anisotropy for TMA-DPH and DPH was calculated using the following equation [64]:(5) A=I∥−GI⊥/I∥+2GI⊥ where I∥ and I⊥ are fluorescence intensities observed in directions parallel and perpendicular, respectively to the polarization plane of the exciting wave. […]
The fluorescence experiment was conducted using a Cary Eclipse fluorimeter (Varian, Palo Alto, CA, USA). […]

Row | IC50 (COX-2; Tris-HCl pH 8.0, room temperature, read-out: IC50 COX-2) [µM] | Structure (SMILES) | decrease (Δδ) in the splitting parameter of polar head groups resonance [1] [%] | decrease of the Iout/Iin ratio vs pure DPPC [1] [%] | increase in the half width of the membrane surface signal vs pure DPPC [1] | relative changes in anisotropy in the probe TMA-DPH [2] | IC50 (COX-2) [µM] | decrease in full width at half height (ν) of band of terminal methyl group [1] [%] | increase of the Iout/Iin ratio vs pure DPPC [1] [%] | reduction in intensity of the MC540 probe's fluorescence [2]
1 | 49.2 ± 5.55 | CO[C@H]1[C@H](O)[C@@H](O)[C@H](Oc2cc(O)c3c(=O)c(O)c(-c4ccc(O)c(O)c4)oc3c2)O[C@@H]1CO [Q 7-MeGlu, quercetin 7-O-β-D-(4″-O-methyl)glucopyranoside] | 56 | 13 | ~142% | 5–10% | – | – | – | –
2 | – | O=c1c(O)c(-c2ccc(O)c(O)c2)oc2cc(O)cc(O)c12 [Quercetin, 3,3′,4′,5,7-pentahydroxyflavone] | 32 | – | approximately 119% | 16–37% | 17 ± 2.43 | 4 | 33 | 29–56%
